In PubChem BioAssay (NCI):
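Each compound was tested at five concentrations against cells in 96-well plates for 48 hours. At the TGI there is no net growth.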

Columns and labels:
Experiment in all cases: NCI-60 cell line screen, 48 h
[1] = system: HCT-116 colon
[2] = system: BT-549 breast
[3] = system: TK-10 renal
[4] = system: MDA-N
[5] = system: HT29 colon
[6] = system: MDA-MB-435
[7] = system: UACC-257 melanoma
[8] = system: SF-268 CNS
[9] = system: SF-539 CNS
[10] = system: M14 melanoma
[11] = system: OVCAR-4 ovarian
[12] = system: ACHN renal
[13] = system: MDA-MB-231 breast
[14] = system: HOP-92 NSCLC
[15] = system: U251 CNS
[16] = system: CAKI-1 renal
[17] = system: COLO 205 colon
[18] = system: NCI/ADR-RES ovarian
[19] = system: NCI-H522 lung
[20] = system: SN12C renal
[21] = system: SF-295 CNS
[22] = system: RPMI-8226 leukemia
[23] = system: A498 renal
[24] = system: UO-31 renal
[25] = system: DU-145 prostate
[26] = system: HL-60(TB) leukemia
[27] = system: OVCAR-8 ovarian
[28] = system: NCI-H226 lung
[29] = system: SK-OV-3 ovarian
[30] = system: OVCAR-5 ovarian
[31] = system: NCI-H460 lung
[32] = system: OVCAR-3 ovarian
[33] = system: A549 NSCLC
[34] = system: SW-620 colon
[35] = system: KM12 colon
[36] = system: HOP-62 NSCLC
[37] = system: NCI-H23 lung
[38] = system: T-47D breast
[39] = system: EKVX NSCLC
[40] = system: K-562 leukemia
[41] = system: HCT-15 colon
[42] = system: SNB-75 CNS
[43] = system: HCC-2998 colon
[44] = system: MALME-3M melanoma
[45] = system: CCRF-CEM leukemia
[46] = system: HS 578T breast
[47] = system: SNB-19 CNS
[48] = system: SK-MEL-5 melanoma
[49] = system: 786-0 renal
[50] = system: IGROV1 ovarian
[51] = system: SR leukemia
[52] = system: SK-MEL-28 melanoma
[53] = system: MCF7 breast
[54] = system: LOX IMVI melanoma
[55] = system: MOLT-4 leukemia
[56] = system: SK-MEL-2 melanoma
[57] = system: PC-3 prostate
[58] = system: UACC-62 melanoma
[59] = system: RXF 393 renal

## C[C@@H]1C[C@H](O)[C@]2(O)O[C@@H]3C[C@@]4(C=O)[C@@H](CC=C5[C@@H]4CC[C@]4(C)[C@@H](C6=CC(=O)OC6)CC[C@]54O)C[C@H]3O[C@@H]2O1
[1]
  TGI: 0.036 µM
[2]
  TGI: 0.0508 µM
[3]
  TGI: 0.186 µM
[4]
  TGI: 0.195 µM
[5]
  TGI: 0.25 µM
[6]
  TGI: 0.151 µM
[7]
  TGI: 0.372 µM
[8]
  TGI: 0.166 µM
[9]
  TGI: 0.141 µM
[10]
  TGI: 0.817 µM
[11]
  TGI: < 0.0169 µM
[12]
  TGI: 0.0821 µM
[13]
  TGI: 2.65 µM
[14]
  TGI: 0.174 µM
[15]
  TGI: 0.188 µM
[16]
  TGI: 0.0722 µM
[17]
  TGI: 1.94 µM
[18]
  TGI: 0.215 µM
[19]
  TGI: 0.0468 µM
[20]
  TGI: 0.131 µM
[21]
  TGI: 0.627 µM
[22]
  TGI: 0.349 µM
[23]
  TGI: 0.0627 µM
[24]
  TGI: 0.153 µM
[25]
  TGI: 0.0384 µM
[26]
  TGI: 0.062 µM
[27]
  TGI: 0.22 µM
[28]
  TGI: 0.233 µM
[29]
  TGI: 1.86 µM
[30]
  TGI: 0.492 µM
[31]
  TGI: 0.0711 µM
[32]
  TGI: 0.308 µM
[33]
  TGI: 0.097 µM
[34]
  TGI: 1.87 µM
[35]
  TGI: 0.749 µM
[36]
  TGI: 0.0319 µM
[37]
  TGI: 0.0207 µM
[38]
  TGI: 0.325 µM
[39]
  TGI: 0.215 µM
[40]
  TGI: > 100 µM
[41]
  TGI: 0.194 µM
[42]
  TGI: 0.916 µM
[43]
  TGI: 0.285 µM
[44]
  TGI: 0.0532 µM
[45]
  TGI: 0.0161 µM
[46]
  TGI: 0.191 µM
[47]
  TGI: 0.93 µM
[48]
  TGI: 0.133 µM

## CN(C)c1ccc(/C(Br)=C2\OC(=O)c3ccccc32)cc1
[1]
  TGI: > 100 µM
[3]
  TGI: > 100 µM
[4]
  TGI: > 100 µM
[5]
  TGI: > 100 µM
[49]
  TGI: > 100 µM
[6]
  TGI: > 100 µM
[7]
  TGI: > 100 µM
[50]
  TGI: > 100 µM
[8]
  TGI: > 100 µM
[9]
  TGI: > 100 µM
[10]
  TGI: > 100 µM
[11]
  TGI: > 100 µM
[51]
  TGI: > 100 µM
[12]
  TGI: > 100 µM
[13]
  TGI: > 100 µM
[52]
  TGI: > 100 µM
[15]
  TGI: > 100 µM
[16]
  TGI: > 100 µM
[17]
  TGI: > 100 µM
[18]
  TGI: > 100 µM
[20]
  TGI: > 100 µM
[53]
  TGI: > 100 µM
[21]
  TGI: > 100 µM
[22]
  TGI: 71.7 µM
[23]
  TGI: > 100 µM
[24]
  TGI: > 100 µM
[25]
  TGI: > 100 µM
[26]
  TGI: > 100 µM
[27]
  TGI: > 100 µM
[28]
  TGI: > 100 µM
[29]
  TGI: > 100 µM
[30]
  TGI: > 100 µM
[31]
  TGI: > 100 µM
[54]
  TGI: > 100 µM
[33]
  TGI: > 100 µM
[34]
  TGI: > 100 µM
[35]
  TGI: > 100 µM
[36]
  TGI: > 100 µM
[37]
  TGI: > 100 µM
[38]
  TGI: > 100 µM
[39]
  TGI: > 100 µM
[40]
  TGI: > 100 µM
[41]
  TGI: > 100 µM
[42]
  TGI: > 100 µM
[43]
  TGI: > 100 µM
[55]
  TGI: > 100 µM
[56]
  TGI: > 100 µM
[44]
  TGI: > 100 µM
[45]
  TGI: > 100 µM
[57]
  TGI: > 100 µM
[46]
  TGI: > 100 µM
[47]
  TGI: > 100 µM
[48]
  TGI: > 100 µM
[58]
  TGI: > 100 µM

## COc1cccc(-c2nc(-c3cnccn3)n(Cc3ccccc3)n2)c1
[1]
  TGI: > 100 µM
[2]
  TGI: > 100 µM
[3]
  TGI: > 100 µM
[4]
  TGI: > 100 µM
[5]
  TGI: > 100 µM
[49]
  TGI: > 100 µM
[6]
  TGI: > 100 µM
[7]
  TGI: > 100 µM
[50]
  TGI: > 100 µM
[8]
  TGI: > 100 µM
[9]
  TGI: > 100 µM
[10]
  TGI: > 100 µM
[11]
  TGI: > 100 µM
[51]
  TGI: > 100 µM
[13]
  TGI: > 100 µM
[52]
  TGI: > 100 µM
[14]
  TGI: 81.1 µM
[15]
  TGI: > 100 µM
[17]
  TGI: > 100 µM
[19]
  TGI: > 100 µM
[20]
  TGI: > 100 µM
[53]
  TGI: > 100 µM
[21]
  TGI: > 100 µM
[22]
  TGI: > 100 µM
[24]
  TGI: > 100 µM
[25]
  TGI: > 100 µM
[26]
  TGI: > 100 µM
[27]
  TGI: > 100 µM
[29]
  TGI: > 100 µM
[30]
  TGI: > 100 µM
[31]
  TGI: > 100 µM
[54]
  TGI: > 100 µM
[32]
  TGI: > 100 µM
[33]
  TGI: > 100 µM
[34]
  TGI: > 100 µM
[35]
  TGI: > 100 µM
[36]
  TGI: > 100 µM
[37]
  TGI: > 100 µM
[59]
  TGI: 64 µM
[38]
  TGI: > 100 µM
[39]
  TGI: > 100 µM
[40]
  TGI: > 100 µM
[41]
  TGI: > 100 µM
[42]
  TGI: > 100 µM
[43]
  TGI: > 100 µM
[55]
  TGI: > 100 µM
[45]
  TGI: > 100 µM
[57]
  TGI: > 100 µM
[47]
  TGI: > 100 µM
[48]
  TGI: > 100 µM
[58]
  TGI: > 100 µM

## COc1cccc(C2c3cc4c(cc3OC(N3CCCC3)C2C)OCO4)c1OC (stereo unspecified)
[1]
  TGI: 5.99 µM
[3]
  TGI: > 100 µM
[4]
  TGI: 19.6 µM
[5]
  TGI: 11.3 µM
[49]
  TGI: 18.8 µM
[6]
  TGI: 14.3 µM
[50]
  TGI: 16.6 µM
[8]
  TGI: 21 µM
[9]
  TGI: 16.2 µM
[10]
  TGI: 23.8 µM
[51]
  TGI: 15.2 µM
[12]
  TGI: 16.8 µM
[16]
  TGI: 3.15 µM
[17]
  TGI: 19.4 µM
[18]
  TGI: 15 µM
[19]
  TGI: 25.5 µM
[20]
  TGI: 14.5 µM
[53]
  TGI: > 100 µM
[21]
  TGI: 12.4 µM
[22]
  TGI: 13.2 µM
[24]
  TGI: 7.51 µM
[25]
  TGI: 11.5 µM
[27]
  TGI: 39.8 µM
[30]
  TGI: 17.9 µM
[31]
  TGI: 12.5 µM
[54]
  TGI: 4.07 µM
[32]
  TGI: 6.7 µM
[33]
  TGI: 25.5 µM
[34]
  TGI: 18.8 µM
[35]
  TGI: 15.1 µM
[36]
  TGI: 26.7 µM
[38]
  TGI: 39.3 µM
[39]
  TGI: 97.8 µM
[40]
  TGI: 30.5 µM
[41]
  TGI: 16.9 µM
[55]
  TGI: 10.7 µM
[56]
  TGI: 17.1 µM
[45]
  TGI: 16.9 µM
[57]
  TGI: 27.3 µM
[46]
  TGI: 11.1 µM
[47]
  TGI: 5.33 µM
[48]
  TGI: 12.5 µM
[58]
  TGI: 34.5 µM
